According to patent US20070117842A1, “Polymorph of 4-[3-chloro-4-(cyclopropylaminocarbonyl)aminophenoxy]-7-methoxy-6- quinolinecarboxamide and a process for the preparation of the same” (priority 2003, published 2007):
Values after ≈ are worked out from the molar mass of the structure shown.

What was measured:
Assay type in all cases: physicochemical
[1] = Hygroscopicity test by a desiccator method; conditions: for water content: Karl Fischer method
Procedure: (Hygroscopicity Test by a Desiccator Method) The hygroscopicities of the crystals obtained in Examples 1d and 2d were evaluated by a desiccator method. […] Weighing bottles (in opened caps) were used for containers, and MIR-552 (Sanyo) was used for a storage apparatus. [table] The powder X-ray diffraction analysis was carried out under the following conditions. The water content was measured (by the Karl Fischer method) by using the following apparatus and reagents.

[2] = Hygroscopicity test by microbalance method; conditions: 25° C.
Procedure: (Hygroscopicity Test by Microbalance Method)
The higroscopicities of the crystals obtained in Examples 1d and 2d were evaluated by microbalance method. An apparatus and conditions employed were as follows.
Apparatus: Integrated microbalance system MB 300W (VTI Co.)
Relative humidity step: 5 to 95 by 5
Equilibrium Criteria: 0.0050 wt % (5 minutes)
Maximum equilibrium time: 120 minutes
The results of measuring the higroscopicities of the crystals obtained in Examples 1d and 2d by microbalance method are shown in FIGS. 13 and 14, respectively. As is seen from the results shown in these figures, within the range of 5-95% of relative humidity, the polymorph (A) gave a weight change of 1% and the polymorph (B) gave that of 1.5%.

[3] = Solid stability test (1 month storage; appearance, water content, HPLC purity and residual ratio, powder X-ray diffraction); conditions: for impurity / remaining percent: HPLC; for water content: Karl Fischer method
Procedure: (Solid Stability Test) The solid stabilities of the crystal obtained in Examples 1d and 2d were evaluated. […] The water content measurement and the powder X-ray diffraction measurement were carried out by the same method as described in the hygroscopicity test by the dessiccator method. Further, the purity test and the residual ratio (percent) measurement by HPLC were carried out by the same method as described above, except for the condition that the column temperature was 35° C. In this connection, the residual ratio (percent) (measurement by HPLC) was defined as stated bellow by using the crystal stored under the condition C as the standard and its solution as the standard solution. Remaining percent (%)=[(Peak area of the sample solution)×(Weighed amount of the standard: in terms of a dehydrate (mg))]×100/[(Peak area of the standard solution)×(Weighed amount of the sample: in terms of a dehydrate (mg))] [table]

[4] = Solubility test (pH 3, Britton Robinson buffer); conditions: for pH of the filtrate: solubility test
Procedure: (Solubility Test) The solubilities (pH 3) of the crystals obtained in Examples 1d and 2d were evaluated by the following method. About 3 mg of the crystals obtained in Examples 1d and 2d were weighed and each of them was put in a 10 mL screw-capped transparent test tube. 5 mL of a buffer solution (Britton Robinson buffer, pH 3.091, ionic strength I=0.3) was added to each of the test tubes to prepare the test solutions. The test tubes were wrapped with aluminum foil to shield from light, and shaken by a shaker (MS-1 Iuchi Seieido) in the following conditions. Temperature: 25-26° C. (a temperature in a laboratory) Shaking frequency: 150 times/minute Shaking time: 3 hours and 5 hours Respective sample solutions after shaking were filtered ([…], Sample LCR13-LG, Millipore Co.), and each 1 mL of the initial filtrate was discarded. Each of accurately pipetted 1 mL of the filtrates was put in a 10 mL test tube, to which accurately pipetted 1 mL of a mixed solution of water/acetonitrile (1:1 (v/v)) was added to prepare a solution for the HPLC analysis. The HPLC conditions were as follows. A standard solution for the HPLC analysis were prepared as follows. About 10 mg of the crystals obtained in Example 2d was accurately weighed, to which a mixed solution of water/acetonitrile/ammonium acetate (100:100:0.1, v/v/w) was added to give accurate 100 mL to prepare a stock standard solution. Accurately pipetted 5 mL of the stock control solution was added with a mixed solution of water/acetonitrile/ammonium acetate (100:100:0.1, v/v/w) to give accurate 25 mL to prepare the standard solution for the HPLC analysis. Regarding a blank solution, a mixed solution of water/acetonitrile/ammonium acetate (100:100:0.1, v/v/w) was used. The standard solution and respective filtrates were analyzed by HPLC to measure concentrations (mg/mL) of 4-(3-chloro-4-(cyclopropylaminocarbonyl)aminophenoxy)-7-methoxy-6-quinolinecarboxamide in respective filtrates according to the following equation. Concentration (mg/mL)=(Concentration in the standard solution, mg/mL)×[(Peak area in each filtrate)×2/(Peak area in the standard solution)] As is evident from the results, there was no significant difference in the solubility at pH 3 between the polymorphs (A) and (B).

[5] = Crystal transition between polymorphs in heated suspension; conditions: 60° C., 3 hours, listed as polymorph (A)
Procedure: These suspensions were filtered to collect 4-(3-chloro-4-(cyclopropylaminocarbonyl)aminophenoxy)-7-methoxy-6-quinolinecarboxamide (184 to 266 mg).
These suspensions were filtered to collect 4-(3-chloro-4-(cyclopropylaminocarbonyl)aminophenoxy)-7-methoxy-6-quinolinecarboxamide (141 to 256 mg).

[6] = condition A: 25° C., 75% relative humidity, stored 1 week
[7] = condition B: 25° C., 93% relative humidity, stored 1 week
[8] = desiccator method, 25° C., 75% or 93% relative humidity, 1 week
[9] = condition C: −20° C., brown screw vial, closed, 1 month
[10] = condition D: 25° C., 1000lx, shading with aluminum foil, quartz tube, closed, 1 month
[11] = condition E: 25° C., 1000lx, quartz tube, closed, 1 month
[12] = condition F: 40° C., 75% RH, brown screw vial, open, 1 month
[13] = condition G: 60° C., brown screw vial, closed, 1 month

- appearance [1, 6]: light brown
- water content [1, 6]: 1.0 wt %
- appearance [1, 7]: light brown
- water content [1, 7]: 1.2 wt %
- crystal transition [1, 8]: no perceivable crystal transition
- hygroscopicity [1, 8]: no perceivable hygroscopicitiy
- appearance ([1]; prior to storage): light brown
- water content ([1]; prior to storage): 1.0 wt %
- hygroscopicity ([2]; microbalance method, 5-95% relative humidity): no perceivable hygroscopisity
- weight change ([2]; within the range of 5-95% of relative humidity, listed as polymorph (A)): 1%
- appearance [3, 9]: light brown
- impurity [3, 9]: 2.66%
- remaining percent ([3]; condition C: −20° C., brown screw vial, closed, 1 month, condition C is the standard): (100) %
- water content [3, 9]: 1.0 wt %
- appearance [3, 10]: light brown
- impurity [3, 10]: 2.67%
- remaining percent ([3]; condition D: 25° C., 1000lx, shading with aluminum foil, quartz tube, closed, 1 month, vs condition C standard): 103.3%
- water content [3, 10]: 0.7 wt %
- appearance [3, 11]: light brown
- impurity [3, 11]: 2.68%
- remaining percent ([3]; condition E: 25° C., 1000lx, quartz tube, closed, 1 month, vs condition C standard): 104.3%
- water content [3, 11]: 0.8 wt %
- appearance [3, 12]: light brown
- impurity [3, 12]: 2.65%
- remaining percent ([3]; condition F: 40° C., 75% RH, brown screw vial, open, 1 month, vs condition C standard): 102.3%
- water content [3, 12]: 1.2 wt %
- appearance [3, 13]: light brown
- impurity [3, 13]: 2.65%
- remaining percent ([3]; condition G: 60° C., brown screw vial, closed, 1 month, vs condition C standard): 104.4%
- water content [3, 13]: 0.5 wt %
- appearance ([3]; prior to storage): light brown
- impurity ([3]; prior to storage): 2.71%
- water content ([3]; prior to storage): 1.0 wt %
- change on storage (solid stability) ([3]; stored for 1 month, any storage conditions): no change was observed
- solubility at 3 h ([4]; Britton Robinson buffer, 25 °C, pH 3, aqueous buffer, thermodynamic from solid, pH 3 Britton Robinson buffer, 25-26° C., shaking time 3 hours, read-out: solubility (concentration in filtrate)): 77 µg/mL (≈ 180 µM)
- solubility at 5 h ([4]; Britton Robinson buffer, 25 °C, pH 3, aqueous buffer, thermodynamic from solid, pH 3 Britton Robinson buffer, 25-26° C., shaking time 5 hours, read-out: solubility (concentration in filtrate)): 71 µg/mL (≈ 166 µM)
- pH of the filtrate ([4]; shaking time 3 hours): 3.123
- pH of the filtrate ([4]; shaking time 5 hours): 3.107
- dissolution in DMSO ([5]; 300 mg in DMSO (1.7 mL), without 33% acetone-water): most of the polymorph (A) dissolved
SMILES: COc1cc2nccc(Oc3ccc(NC(=O)NC4CC4)c(Cl)c3)c2cc1C(N)=O [Example 1d, 4-(3-chloro-4-(cyclopropylaminocarbonyl)aminophenoxy)-7-methoxy-6-quinolinecarboxamide]
- crystal form after suspension ([5]; 300 mg in DMSO (1.7 mL) and 33% (v/v) acetone-water (0.17, 0.34, 0.51 or 0.85 mL)): crystal transition to the polymorph (B) occurred in every case
